Laboratory results as given in patent US9113629B2, “4-amino-6-(4-substituted-phenyl)-picolinates and 6-amino-2-(4-substituted-phenyl)-pyrimidine-4-carboxylates and their use as herbicides” (DOW AGROSCIENCES LLC, priority 2013, dated 2015).
Read-outs that look alike come from different tables or passages of the source.

Assays:
[1] = test system: Key Broadleaf Weed and Crop Species; experiment: Post-emergent Test II herbicidal activity (Table 5); type: in vivo; details: post-emergence, 336 h, post-emergent, 14 days after application; for pest or weed control at 66 g/ha: 66 g ai/ha; for pest or weed control at 132 g/ha: 132 g ai/ha
Procedure, shortened: (§1)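 Injury was rated visually 14 d after treatment on a 0–100% scale against untreated controls. Test compounds, formulated with crop oil concentrate and surfactant and serially diluted down to 1/16× of the top rate, were applied by track sprayer at 187 L/ha onto first- to second-true-leaf seedlings.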

[2] = test system: Key Grass and Sedge Weeds as well as Grass Crops; experiment: Post-emergent Test II herbicidal activity (Table 6); type: in vivo; details: post-emergence, 336 h; for pest or weed control at 66 g/ha: application rate 66 g ai/ha; for pest or weed control at 132 g/ha: application rate 132 g ai/ha
Procedure, shortened: as §1

[3] = ABUTH: velvetleaf (Abutilon theophrasti), read-out: Visual Growth Reduction (%) 14 Days After Application ABUTH
[4] = AMARE: redroot pigweed (Amaranthus retroflexus), read-out: Visual Growth Reduction (%) 14 Days After Application AMARE
[5] = BRSNN: oilseed-rape, canola (Brassica napus), read-out: Visual Growth Reduction (%) 14 Days After Application BRSNN
[6] = CHEAL: lambsquarters (Chenopodium album), read-out: Visual Growth Reduction (%) 14 Days After Application CHEAL
[7] = EPHHL: wild poinsettia (Euphorbia heterophylla), read-out: Visual Growth Reduction (%) 14 Days After Application EPHHL
[8] = HELAN: sunflower (Helianthus annuus), read-out: Visual Growth Reduction (%) 14 Days After Application HELAN
[9] = VIOTR: wild pansy (Viola tricolor), read-out: Visual Growth Reduction (%) 14 Days After Application VIOTR
[10] = Triticum aestivum, TRZSS (wheat), read-out: Visual Growth Reduction (%) 14 Days After Application, TRZSS
[11] = CYPES: yellow nutsedge (Cyperus esculentus), read-out: Visual Growth Reduction (%) 14 Days After Application, CYPES
[12] = DIGSA: crabgrass (Digitaria sanguinalis), read-out: Visual Growth Reduction (%) 14 Days After Application, DIGSA
[13] = ECHCG: barnyardgrass (Echinochloa crus-galli), read-out: Visual Growth Reduction (%) 14 Days After Application, ECHCG
[14] = ORYSA: rice (Oryza sativa), read-out: Visual Growth Reduction (%) 14 Days After Application, ORYSA
[15] = SETFA: giant foxtail (Setaria faberi), read-out: Visual Growth Reduction (%) 14 Days After Application, SETFA
[16] = SORVU: grain sorghum (Sorghum vulgare), read-out: Visual Growth Reduction (%) 14 Days After Application, SORVU
[17] = ZEAMX: maize, corn (Zea mays), read-out: Visual Growth Reduction (%) 14 Days After Application, ZEAMX

C#Cc1ccc(-c2nc(C(=O)OC)c(Cl)c(N)c2C)cc1 [Compound 40, methyl 4-amino-3-chloro-6-(4-ethynylphenyl)-5-methylpicolinate]
45 to 59%: pest or weed control at 132 g/ha [1, 4] | pest or weed control at 66 g/ha [1, 5] | pest or weed control at 132 g/ha [1, 5] | pest or weed control at 66 g/ha [1, 6]
75 to 84%: pest or weed control at 66 g/ha [1, 3]
85 to 94%: pest or weed control at 66 g/ha [1, 8]
0 to 29%: pest or weed control at 66 g/ha [1, 4] | pest or weed control at 66 g/ha [1, 7] | pest or weed control at 132 g/ha [1, 7] | pest or weed control at 66 g/ha [1, 9] | pest or weed control at 132 g/ha [1, 9] | pest or weed control at 66 g/ha [2, 10] | pest or weed control at 132 g/ha [2, 10] | pest or weed control at 66 g/ha [2, 11] | pest or weed control at 132 g/ha [2, 11] | pest or weed control at 66 g/ha [2, 12] | pest or weed control at 132 g/ha [2, 12] | pest or weed control at 66 g/ha [2, 13] | pest or weed control at 132 g/ha [2, 13] | pest or weed control at 66 g/ha [2, 14] | pest or weed control at 132 g/ha [2, 14] | pest or weed control at 66 g/ha [2, 15] | pest or weed control at 132 g/ha [2, 15] | pest or weed control at 66 g/ha [2, 16] | pest or weed control at 132 g/ha [2, 16] | pest or weed control at 66 g/ha [2, 17] | pest or weed control at 132 g/ha [2, 17]
60 to 74%: pest or weed control at 132 g/ha [1, 6]
95 to 100%: pest or weed control at 132 g/ha [1, 3] | pest or weed control at 132 g/ha [1, 8]
